The values below come from paper PMC4973094, “Anti-cholinesterases and memory improving effects of Vietnamese Xylia xylocarpa” (Chemistry Central Journal, 2016).

The target of assay [1] is T1, Acetylcholinesterase (AChE) (EC 3.1.1.7) (Homo sapiens, UniProt P22303).
T1 construct: purchased Sigma-Aldrich Pte Ltd (Nucleos, Singapore)
Description: AChE inhibition assay (modified Ellman's method). Format: biochemical. How it is done:
(§1) Male Swiss mice (age, 8 weeks; weight, 25–27 g) were purchased from Military Medical University (Hanoi, Vietnam) and housed in a regulated environment (21 ± 2 °C, 12 h light/dark cycle, light period starting at 7 AM) with free access to food and water. Acetylcholinesterase (AChE) (EC 3.1.1.7), butyrylcholinesterase (BChE) (EC 3.1.1.8) and scopolamine hydrobromide (>98 %) were obtained from Sigma-Aldrich Pte Ltd (Nucleos, Singapore). […] Other chemicals were of the highest grade available.
(§2) The inhibitory activities of the ChEs were measured using a modified Ellman’s method. Acetylthiocholine and butyrylthiocholine were used as substrates to examine the inhibitory effect of sample on the AChE and BChE action, respectively. The reaction mixture contained: 140 μL of sodium phosphate buffer (pH 8.0); 20 μL of tested sample solution; and 20 µL of either AChE or BChE solution (5 units/mL), which were mixed and incubated at room temperature for 15 min. The reactions were initiated by the addition of 10 µL of dithiobisnitrobenzoate (DTNB) and 10 μL of either acetylthiocholine or butyrylthiocholine, respectively. The hydrolysis of AChE or BChE was monitored at 412 nm based on the formation of yellow 5-thio-2-nitrobenzoate anion from the reaction of DTNB with thiocholine, which was released by enzymatic hydrolysis of either AChE or BChE. […] The reaction was performed in triplicate and recorded in 96-well microplates using a microplate reader (VersaMax ELISA, USA). Percent inhibition was calculated from (1–S/E) × 100, where E and S were the enzyme activities […] the tested sample, respectively.
In general terms: DTNB colorimetry detects thiols as they appear.

The target in assay [2] is T2, butyrylcholinesterase (BChE) (EC 3.1.1.8) (Homo sapiens, UniProt P06276).
T2 construct: purchased Sigma-Aldrich Pte Ltd (Nucleos, Singapore)
Kind of assay: BChE inhibition assay (modified Ellman's method). Format: biochemical. The note with it: average of 3 replicates ± SD; substrate butyrylthiocholine, pH 8.0. Here is the method:
as §1, §2

Assay [3] deals with scopolamine-induced memory deficit in mice. Description: Object recognition test, scopolamine-induced recognition impairment. Format: in vivo, male Swiss mice. The note with it: scopolamine 1.5 mg/kg i.p. alone.
Assay [4] shares this test system. Description: Morris water maze test, scopolamine-induced memory dysfunction. The assay is classed as in vivo, male Swiss mice. The following applies: scopolamine 1.5 mg/kg i.p. alone, versus vehicle-treated controls.
Assay [5] shares this test system. Description: Y-maze test, scopolamine-induced memory impairment. The assay is classed as in vivo, male Swiss mice. The following applies: scopolamine 1.5 mg/kg i.p. alone; versus vehicle-treated control group, P < 0.001.
The mark [6] stands for this setting: days 3 to 7, P < 0.01 and P < 0.001.

Structures are written as SMILES. Structures can show the parent of a compound that is named as a salt. Where two headings read alike, the source gives them in different places.

T1 sequence (P22303 32-614): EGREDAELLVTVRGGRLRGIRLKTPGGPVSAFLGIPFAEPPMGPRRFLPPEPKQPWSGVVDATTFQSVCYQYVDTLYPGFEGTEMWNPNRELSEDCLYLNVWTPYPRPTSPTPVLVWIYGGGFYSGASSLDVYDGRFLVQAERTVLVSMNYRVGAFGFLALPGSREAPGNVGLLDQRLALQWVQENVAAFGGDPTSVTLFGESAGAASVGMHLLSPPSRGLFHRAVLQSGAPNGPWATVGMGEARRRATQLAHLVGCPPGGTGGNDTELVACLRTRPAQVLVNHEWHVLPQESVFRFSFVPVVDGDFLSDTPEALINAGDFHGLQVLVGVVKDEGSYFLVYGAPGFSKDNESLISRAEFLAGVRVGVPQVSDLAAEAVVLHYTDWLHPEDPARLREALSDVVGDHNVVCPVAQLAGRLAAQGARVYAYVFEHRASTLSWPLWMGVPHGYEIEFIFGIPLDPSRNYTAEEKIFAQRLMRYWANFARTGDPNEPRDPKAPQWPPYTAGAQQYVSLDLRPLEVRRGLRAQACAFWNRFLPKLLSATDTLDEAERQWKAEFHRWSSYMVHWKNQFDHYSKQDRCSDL
T2 sequence (P06276 29-602, species assumed): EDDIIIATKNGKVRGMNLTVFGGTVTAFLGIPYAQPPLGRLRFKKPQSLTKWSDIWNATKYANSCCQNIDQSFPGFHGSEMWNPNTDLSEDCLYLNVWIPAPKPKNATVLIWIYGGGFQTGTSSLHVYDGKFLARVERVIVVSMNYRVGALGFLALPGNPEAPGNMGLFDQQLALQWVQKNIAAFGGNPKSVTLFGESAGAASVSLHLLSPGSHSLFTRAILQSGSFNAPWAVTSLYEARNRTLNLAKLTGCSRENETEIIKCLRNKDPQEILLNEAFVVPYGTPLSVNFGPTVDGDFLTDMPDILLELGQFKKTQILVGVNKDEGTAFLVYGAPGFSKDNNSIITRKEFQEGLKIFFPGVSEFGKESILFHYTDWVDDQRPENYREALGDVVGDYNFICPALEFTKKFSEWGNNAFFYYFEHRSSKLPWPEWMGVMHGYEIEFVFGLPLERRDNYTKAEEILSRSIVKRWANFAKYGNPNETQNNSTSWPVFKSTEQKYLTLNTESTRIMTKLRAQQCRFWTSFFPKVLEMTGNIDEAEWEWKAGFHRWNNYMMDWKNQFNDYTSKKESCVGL

Turning to `C=C(C)[C@@H]1CC[C@]2(O)CC[C@]3(C)C(CCC4[C@@]5(C)CC[C@H](O)C(C)(C)C5CC[C@]43C)C12` (stereo partly drawn) [Compound 3, 28-norlup-20(29)-ene-3β,17β-diol], the IC50 in assay [1] and in assay [2] was greater than 100 µM each time.
In turn, `C=C(C)[C@@H]1CC[C@]2(CO)CC[C@]3(C)[C@H](CC[C@@H]4[C@@]5(C)CC[C@H](O)C(C)(C)[C@@H]5CC[C@]43C)[C@@H]12` [Compound 4, betulin] had an IC50 in assay [1] of 93.4 ± 2.2 µM.
For the compound `COc1cc(C(=O)O)ccc1O` [Compound 18, vanillic acid], the half-inhibitory concentration (IC50) in assay [1] and in assay [2] was greater than 100 µM each time.
`COc1cc(C(=O)O)cc(OC)c1O` [Compound 21, syringic acid] gave a concentration for half-maximal inhibition (IC50) in assay [1] greater than 100 µM.
On the same count and under the same terms, next, `COC(=O)/C=C/c1ccc(O)c(OC)c1` [Compound 15, methyl ferulate]: greater than 100 µM; `COC(=O)c1cc(O)c(O)c(O)c1` [Compound 20, methyl gallate]: greater than 100 µM.
In the case of `Cc1cc(O)c2c(c1)C(=O)c1cccc(O)c1C2=O` [Compound 12, chrysophanol], the IC50 is 77.3 ± 0.8 µM in assay [1] and greater than 100 µM in assay [2].
The compound `CC1(C)CC[C@]23CC[C@]4(C)C(CCC5[C@@]6(C)CC[C@H](O)C(C)(C)C6CC[C@]54C)C2[C@H]1OC3=O` (stereo partly drawn) [Compound 10, 3β-hydroxy-18α-olean-28,19β-olide] came in with an IC50 in assay [1] greater than 100 µM.
As to `CC1(C)OC(=O)C23CCC1C2CCC1(C)C3CCC2C3(C)CCC(O)C(C)(C)C3CCC21C` (stereo not drawn) [Compound 1, (3β)-hopan-3-ol-28,22-olide], the 50% inhibitory concentration (IC50) in assay [1] was 79.5 ± 1.1 µM; in assay [2], greater than 100 µM.
For `C=C(C)[C@@H]1CC[C@]2(OO)CC[C@]3(C)C(CCC4[C@@]5(C)CC[C@H](O)C(C)(C)C5CC[C@]43C)C12` (stereo partly drawn) [Compound 5, 28-norlup-20(29)-ene-3β-hydroxy-17β-hydroperoxide], in that order: 83.9 ± 0.6 µM and greater than 100 µM.
In the case of `C=C(C)[C@@H]1CC[C@]2(C)CC[C@]3(C)[C@H](CC[C@@H]4[C@@]5(C)CC[C@H](O)C(C)(C)[C@@H]5CC[C@]43C)[C@@H]12` [Compound 2, lupeol], the IC50 in assay [1] was 75.7 ± 3.1 µM; in assay [2], greater than 100 µM.
Regarding `CN1[C@@H]2C[C@@H](OC(=O)[C@H](CO)c3ccccc3)C[C@H]1[C@@H]1O[C@@H]12` [scopolamine, scopolamine hydrobromide], the “Time exploring new versus familiar object, test phase, object recognition test” value in assay [3] was “no total time difference between familiar and new objects”. Also, the “Time in the target quadrant, probe trial day 8, Morris water maze” value in assay [4] (P < 0.05) was “significantly reduced”. In addition, in assay [4] (setting [6]), the “Escape latencies, training trials, Morris water maze” value was “longer” and the “Swimming distances, training trials, Morris water maze” value is given as “longer”. Also, in assay [5], the “Spontaneous alternation (%) in Y-maze” value is reported as “significantly lower”.
Consider `C=C(C)[C@@H]1CC[C@]2(C(=O)O)CC[C@]3(C)C(CCC4[C@@]5(C)CCC(=O)C(C)(C)C5CC[C@]43C)C12` (some centres unmarked) [Compound 8, betulonic acid], for which the IC50 in assay [1] (read-out: IC50 AChE, average of 3 replicates ± SD, substrate acetylthiocholine, pH 8.0) is 94.6 ± 1.5 µM; in assay [2], greater than 100 µM.
Compound `C=C(C)[C@@H]1CC[C@]2(C(=O)O)CC[C@]3(C)[C@H](CC[C@@H]4[C@@]5(C)CC[C@H](O)C(C)(C)[C@@H]5CC[C@]43C)[C@@H]12` [Compound 7, betulinic acid] returned a 50% inhibitory concentration (IC50) in assay [1] of 62 ± 2.2 µM.
The same measure, in the same setting: in the case of `COc1cc(C=O)ccc1O` [Compound 19, vanillin] it was greater than 100 µM.
As for `COC(=O)C(Cc1ccc(O)cc1)C(=O)OC` [Compound 16, methyl 3-(4-hydroxyphenyl)-2-methoxycarbonylpropionate], the 50% inhibitory concentration (IC50) in assay [1] and in assay [2] was greater than 100 µM each time.
In the case of `COC1=CC(=O)C=C(OC)C1=O` [Compound 13, 2,6-dimethoxyl-p-benzoquinone], the IC50 in assay [1] came out at 54.4 ± 3.4 µM; in assay [2], 42.7 ± 7.6 µM.
For `O=C(O)c1ccc(O)c(O)c1` [Compound 17, protocatechuic acid], the IC50 in assay [1] was greater than 100 µM.
Turning to `CC1(C)CC[C@]23CC[C@]4(C)C(CCC5[C@@]6(C)CC[C@H](OC=O)C(C)(C)C6CC[C@]54C)C2[C@H]1OC3=O` (stereo partly drawn) [Compound 11, 3β-formyloxy-l8α-oleanano-28,19β-lactone], the IC50 in assay [1] is 86.5 ± 0.6 µM; in assay [2], greater than 100 µM.
As for `COc1cc(/C=C/C(=O)O)ccc1O` [Compound 14, ferulic acid], the IC50 in assay [1] and in assay [2] was greater than 100 µM in each case.

What is called IC50 is the concentration at which inhibition is half-maximal.
